Results from patent US11007183B2, “Cancer treatments using combinations of PI3K/Akt pathway and ERK inhibitors” (BIOMED VALLEY DISCOVERIES, INC., priority 2013, dated 2021).
pIC50: −log10 of the molar value.

Experiments:
Assay type in all cases: cell-based, human
[1] = tested on: HCT116 PIK3CA (+/−) cells; assay: Combination proliferation assay (Loewe/Bliss); details: 2.5% serum
Procedure: Test compounds were incubated with the cells for 72 h at 37° C., 5% CO2 in a humidified atmosphere. CellTiter-Glo® reagent (Promega, Madison, Wis.) was added according to manufacturer's instructions and luminescence detected using the BMG FLUOstar plate reader (BMG Labtech, Ortenberg, Germany). The average media only background value was deducted and the data analysed. For the 10×8 combination assays the combination interactions across the dose matrix were determined by the Loewe Additivity and Bliss independence models using ChaliceTM Combination Analysis Software (Horizon Discovery Group, Cambridge, Mass.) as outlined in the user manual (available at chalice.horizondiscovery.com/chalice-portal/documentation/analyzer/home.jsp). Synergy is determined by comparing the experimentally observed level of inhibition at each combination point with the value expected for additivity, which is derived from the single-agent responses along the edges of the matrix. Potential synergistic interactions were identified by displaying the calculated excess inhibition over that predicted as being additive across the dose matrix as a heat map, and by reporting a quantitative 'Synergy Score' based on the Loewe model. The single agent data derived from the combination assay plates were presented as dose-response curves generated in GraphPad Prism (GraphPad Software, La Jolla, Calif.) (plotted using percentage viability relative to DMSO only treated controls). […] (Cbliss is the fractional inhibition that would be expected if the combination of the two drugs were exactly additive). Cbliss values were then subtracted from the experimentally observed fractional inhibition values to give an 'excess over Bliss' value which were plotted as heat maps±SD.

HCT116 Parental = assay: Single agent proliferation assay (CellTiter-Glo, 72 h); details: Homo sapiens, HCT-116, 72 h
Procedure: (§1) Cells were seeded in 96-well plates at the densities and media conditions indicated in Table 11 in McCoy's 5A containing either 10% FBS or 1% charcoal-stripped FBS (CS-FBS), and allowed to adhere overnight prior to addition of compound or vehicle control. Compounds were prepared from DMSO stocks to give the desired final concentrations. The final DMSO concentration was constant at 0.1%. Test compounds were incubated with the cells for 72 h at 37° C., 5% CO2 in a humidified atmosphere. CellTiter-Glo® reagent (Promega, Madison, Wis.) was added according to manufacturer's instructions and luminescence detected using the BMG FLUOstar plate reader (BMG Labtech, Ortenberg, Germany). The average media only background value was deducted and the data analysed using a 4-parameter logistic equation in GraphPad Prism (GraphPad Software, La Jolla, Calif.).

HCT116 PIK3CA (+/−) = assay: as above; details: Homo sapiens, HCT-116, 72 h
Procedure: as §1, with “Compounds were prepared from DMSO stocks to give the desired final concentrations.” left out

In the case of `CC(C)Nc1cc(-c2c[nH]c(C(=O)N[C@H](CO)c3cccc(Cl)c3)c2)c(Cl)cn1` [BVD-523], the “Single agent sensitivity relative to the parental line” value ([1]; HCT116 line lacking the PIK3CA mutation vs parental) was “more sensitive”, the pIC50 ([1]; Homo sapiens, HCT-116, HCT116 PIK3CA (+/−), mean of n=4 separate combinations, read-out: IC50 (single agent, derived from combination assay plates)) was 7.40 and the pIC50 (HCT116 Parental; 1% CS-FBS) was 7.70. The pIC50 (HCT116 Parental; 10% FBS) was 6.77, the pIC50 (HCT116 PIK3CA (+/−); 1% CS-FBS) was 8.00 and the pIC50 (HCT116 PIK3CA (+/−); 10% FBS) was 6.92.
